In article PMC6582339 (2019):

Columns and labels:
[1] = test system: OBA3 (DNA, aptamer) CGGGGCGAAGCGGGTCCCG; experiment: 1H NMR imino spectra; details: 10 mM MgCl2; 10 mM Na2HPO4/KH2PO4; pH 7.4, 2 equivalents of OTB
[2] = test system: OBA1 (DNA, aptamer) CGGGGTGAAACGGGTCCCG; experiment: 1H NMR imino spectra; details: 10 mM MgCl2; 10 mM Na2HPO4/KH2PO4; pH 7.4, 2 equivalents of OTB
[3] = test system: OBA2 (DNA, aptamer) GGGGCGAAGCGGGTCCCG; experiment: 1H NMR imino spectra; details: 10 mM MgCl2; 10 mM Na2HPO4/KH2PO4; pH 7.4, 2 equivalents of OTB
[4] = test system: OBAwt (DNA, aptamer) GGGGTGAAACGGGTCCCG; experiment: 1H NMR imino titration; details: 10 mM Mg2+; 10 mM Na2HPO4/KH2PO4; pH 7.4, 288 K, 0.1 mM aptamer
[5] = test system: OBAwt-I3 (DNA, aptamer, inosine at 3) GGGGTGAAACGGGTCCCG; experiment: inosine substitution (Figure S1); details: 10 mM MgCl2; 10 mM Na2HPO4/KH2PO4; pH 7.4
[6] = test system: OBA5 (DNA, aptamer) CCGGGGCGAAGCGGGTCCCGG; experiment: fluorescence polarization (OTA intrinsic fluorescence); details: 10 mM MgCl2; 10 mM Na2HPO4/KH2PO4; pH 7.4, room temperature, 500 nM OTA titrated with aptamer
[7] = test system: OBA1 (DNA, aptamer) CGGGGTGAAACGGGTCCCG; experiment: as above; details: 10 mM MgCl2; 10 mM Na2HPO4/KH2PO4; pH 7.4, room temperature, 500 nM OTA titrated with aptamer
[8] = test system: OBA6 (DNA, aptamer) GCGGGGCGAAGCGGGTCCCGC; experiment: as above; details: 10 mM MgCl2; 10 mM Na2HPO4/KH2PO4; pH 7.4, room temperature, 500 nM OTA titrated with aptamer
[9] = test system: OBA3 (DNA, aptamer) CGGGGCGAAGCGGGTCCCG; experiment: solution NMR structure; details: 10 mM MgCl2; 10 mM Na2HPO4/KH2PO4; pH 7.4, 288-310 K
[10] = test system: OBAwt-I4 (DNA, aptamer, inosine at 4) GGGGTGAAACGGGTCCCG; experiment: inosine substitution (Figure S1); details: 10 mM MgCl2; 10 mM Na2HPO4/KH2PO4; pH 7.4
[11] = test system: OBAwt-I11 (DNA, aptamer, inosine at 11) GGGGTGAAACGGGTCCCG; experiment: inosine substitution (Figure S1); details: 10 mM MgCl2; 10 mM Na2HPO4/KH2PO4; pH 7.4
[12] = test system: OBAwt-I13 (DNA, aptamer, inosine at 13) GGGGTGAAACGGGTCCCG; experiment: inosine substitution (Figure S1); details: 10 mM MgCl2; 10 mM Na2HPO4/KH2PO4; pH 7.4
[13] = test system: OBAwt-I12 (DNA, aptamer, inosine at 12) GGGGTGAAACGGGTCCCG; experiment: inosine substitution (Figure S1); details: 10 mM MgCl2; 10 mM Na2HPO4/KH2PO4; pH 7.4
[14] = test system: OBA2 (DNA, aptamer) GGGGCGAAGCGGGTCCCG; experiment: fluorescence polarization (OTA intrinsic fluorescence); details: 10 mM MgCl2; 10 mM Na2HPO4/KH2PO4; pH 7.4, room temperature, 500 nM OTA titrated with aptamer
[15] = test system: OBA4 (DNA, aptamer) GGGGTGAAACGGTCCCG; experiment: not stated for this variant (Figure S2); details: 10 mM MgCl2; 10 mM Na2HPO4/KH2PO4; printed NB (no binding); pH 7.4
[16] = test system: OBAwt-I2 (DNA, aptamer, inosine at 2) GGGGTGAAACGGGTCCCG; experiment: inosine substitution (Figure S1); details: 10 mM MgCl2; 10 mM Na2HPO4/KH2PO4; pH 7.4
[17] = test system: OBAwt-I6 (DNA, aptamer, inosine at 6) GGGGTGAAACGGGTCCCG; experiment: inosine substitution (Figure S1); details: 10 mM MgCl2; 10 mM Na2HPO4/KH2PO4; pH 7.4
[18] = test system: OBAwt-I1 (DNA, aptamer, inosine at 1) GGGGTGAAACGGGTCCCG; experiment: inosine substitution (Figure S1); details: 10 mM MgCl2; 10 mM Na2HPO4/KH2PO4; pH 7.4
[19] = test system: OBA3 (DNA, aptamer) CGGGGCGAAGCGGGTCCCG; experiment: fluorescence polarization (OTA intrinsic fluorescence); details: 10 mM MgCl2; 10 mM Na2HPO4/KH2PO4; pH 7.4, room temperature, 500 nM OTA titrated with aptamer
[20] = test system: OBAwt (DNA, aptamer) GGGGTGAAACGGGTCCCG; experiment: as above; details: 10 mM MgCl2; 10 mM Na2HPO4/KH2PO4; pH 7.4, room temperature, 500 nM OTA titrated with aptamer

Structure (SMILES) | binding [1] | binding [2] | binding [3] | binding [4] | binding [5] | K d [6] | K d [7] | K d [8] | binding [9] | binding [10] | binding [11] | binding [12] | binding [13] | K d [14] | binding [15] | binding [16] | binding [17] | binding [18] | K d [19] | K d [20]
C[C@@H]1Cc2ccc(C(=O)N[C@@H](Cc3ccccc3)C(=O)O)c(O)c2C(=O)O1 | weak | weak | weak | no | – | – | – | – | – | – | – | – | – | – | – | – | – | – | – | –
C[C@@H]1Cc2c(Cl)cc(C(=O)N[C@@H](Cc3ccccc3)C(=O)O)c(O)c2C(=O)O1 | – | – | – | – | no | 1.9 ± 0.1 µM | 5.9 ± 0.1 µM | 2.4 ± 0.1 µM | yes | no | no | no | yes | 26.2 ± 0.4 µM | no | no | no | no | 1.4 ± 0.1 µM | 81 ± 2 µM
